Assay results taken from patent publication US20170290820A1, “METHODS AND COMPOSITIONS FOR TREATING BETA-THALASSEMIA AND SICKLE CELL DISEASE” (Academia Sinica, priority 2013, published 2017).
pIC50: −log10 of the molar value. In brackets after ≈: the same amount, converted by molar mass. Where a name gives a salt, the structure may show the parent alone. Read-outs that look alike come from different tables or passages of the source.

Tests used:
[1] = tested on: γ globin gene; assay: γ globin gene induction by relative quantitative RT-PCR; format: cell-based, human; conditions: for γ globin induction (IC50): Table 3, γ globin mRNA induction fold at the compound's IC50, 3 days; for EC (μM) induction of HU IC50 (2.3 fold): concentration inducing γ globin gene expression 2.3-fold, primary human erythroid cells
Method: After 3 days of drug-treatment, the total RNA was extracted by RNA Spin mini kit (Ge-Healthcare) and reverse-transcription was performed by using superscript II (Invitrogen) followed the manufactors instruction. Quantitative PCR was performed on LightCycler with using STBR green master mix followed the manufactors instruction (Roche). The absolute quantitative RT-PCR was calculated by the standard curve with supplying a known copy number of plasmids. The relative quantitative RT-PCR was normalized to the expression levels of the β-actin and compared to the mock control.
To search for new agents, which are capable of inducing the expression of γ globin, a series of naphthalimide derivatives with various substituent(s) on the naphthalene ring and the heterocyclic N-atom (A1-A14, B1-B4, C1-C5, D1, and E1-E3, FIG. 2) were synthesized. These derivatives were subjected to evaluating the γ globin induction abilities in differentiated peripheral blood mononuclear cells (PBMCs). The PBMCs isolated from the peripheral blood of donors were expanded and differentiated for a total of 14 days in a two-phase liquid culture. The resulted primary erythoid cells were then treated with different dosages of naphthalimide derivatives individually for another 3 days. The expression levels of the endogenous γ globin gene were estimated by relative quantitative RT-PCR and the proliferation rates of these cells were examined by AlamarBlue cell viability assay. […]; 2-4.5-folds induction of the γ globin gene expression in the compounds-treated cells (FIG. 3).

[2] = tested on: primary human erythroid cells; assay: AlamarBlue cell viability / proliferation assay; conditions: for pIC50: 3 days
[3] = solubility in DMSO and H2O; format: physicochemical; conditions: for water-solubility (in words): comparison
[4] = DMSO, organic solvent or mixture, read-out: solubility DMSO
[5] = Table 1a, concentration reducing proliferation rate of primary human erythroid cells by 50%
[6] = water, H2O, read-out: solubility H2O
[7] = Table 3, primary human erythroid cells, proliferation reduced by 50%

| Compound | melting point [°C] | pIC50 [2, 5] | other results |
| --- | --- | --- | --- |
| CN(C)CCN1C(=O)c2cccc3cccc(c23)C1O (centres unmarked) [BO-2476, 2-(2-(Dimethylamino)ethyl)-3-hydroxy-2,3-dihydro-1H-benzo[de]isoquinolin-1-one] | 129 to 130 | – | – |
| CN(C)CCN1Cc2cccc3cccc(c23)C1=O [BO-2477, 2-(2-(Dimethylamino)ethyl)-2,3-dihydro-1H-benzo[de]isoquinolin-1-one] | 253 to 254 | – | γ globin-inducing activity, rank among compounds tested ([1]; FIG. 8): highest γ globin-inducing activity; cytotoxicity IC50 against primary erythroid cells ([2]; FIG. 8, Example 2): relatively lower cytotoxicity |
| CN(C)CCN1Cc2cccc3c(N)ccc(c23)C1 [BO-2560, 2-(2-(Dimethylamino)ethyl)-2,3-dihydro-1H-benzo[de]isoquinolin-6-amine] | 253 to 254 | – | – |
| CN(C)CCN1Cc2cccc3c(N(C)C)ccc(c23)C1 [BO-2563, 2-(2-(Dimethylamino)ethyl)-N,N-dimethyl-2,3-dihydro-1H-benzo[de]isoquinolin-6-amine] | 251 to 252 | – | – |
| CCNc1ccc2c3c(cccc13)CN(CCN(C)C)C2 [BO-2565, 2-(2-(dimethylamino)ethyl)-N-ethyl-2,3-dihydro-1H-benzo[de]isoquinolin-6-amine] | 239 to 240 | – | – |
| O=C1c2cccc3cccc(c23)C(=O)N1c1ccccc1 [Compound A1, N-Phenyl-1,8-naphthalimide] | 218 to 220 | < 4.00 | solubility [3, 4]: 10 mM (≈ 2730 µg/mL) |
| O=C1c2cccc3c([N+](=O)[O-])ccc(c23)C(=O)N1c1ccc(Cl)c(Cl)c1 [Compound A3, N-(3,4-Dichloro-phenyl)-4-nitro-1,8-naphthalimide] | > 280 | 5.28 | – |
| O=C(O)CCCc1ccc(N2C(=O)c3cccc4c([N+](=O)[O-])ccc(c34)C2=O)cc1 [Compound A5, N-(4-Butyric acid-phenyl)-4-nitro-1,8-naphthalimide] | 254.5 to 256 | 5.17 | – |
| O=C1c2cccc3c(Cl)ccc(c23)C(=O)N1c1ccccc1 [Compound A6, N-Phenyl-4-chloro-1,8-naphthalimide] | 263 to 265.5 | < 4.00 | – |
| COc1cccc(N2C(=O)c3cccc4c(Cl)ccc(c34)C2=O)c1 [Compound A7, N-(3-Methoxy-phenyl)-4-chloro-1,8-naphthalimide] | > 280 | < 4.00 | – |
| O=C1c2cccc3c(Cl)ccc(c23)C(=O)N1c1cccc(C(F)(F)F)c1 [Compound A8, N-(3-Trifluoromethyl-phenyl)-4-chloro-1,8-naphthalimide] | 278 to 279 | < 4.00 | – |
| O=C1c2cccc3c(Cl)ccc(c23)C(=O)N1c1cccc(Br)c1 [Compound A9, N-(3-Bromo-phenyl)-4-chloro-1,8-naphthalimide] | > 280 | < 4.00 | – |
| O=C1c2cccc3c(Cl)ccc(c23)C(=O)N1c1cccc(Cl)c1 [Compound A10, N-(3-Chloro-phenyl)-4-chloro-1,8-naphthalimide] | 273 to 275 | < 4.00 | – |
| O=C1c2cccc3c(Cl)ccc(c23)C(=O)N1c1ccc(F)c(Br)c1 [Compound A11, N-(3-Bromo-4-fluoro-phenyl)-4-chloro-1,8-naphthalimide] | > 280 | < 4.00 | – |
| O=C1c2cccc3c(Cl)ccc(c23)C(=O)N1c1ccc(F)cc1 [Compound A12, N-(4-Fluoro-phenyl)-4-chloro-1,8-naphthalimide] | 274 to 276 | < 4.00 | – |
| O=C1c2cccc3c(Cl)ccc(c23)C(=O)N1c1ccc(Br)cc1 [Compound A13, N-(4-Bromo-phenyl)-4-chloro-1,8-naphthalimide] | > 280 | < 4.00 | – |
| O=C1c2cccc3c(Cl)ccc(c23)C(=O)N1c1ccc(Cl)c(Cl)c1 [Compound A14, N-(3,4-Dichloro-phenyl)-4-chloro-1,8-naphthalimide] | > 280 | < 4.00 | – |
| CN(C)CCN1C(=O)c2cccc3cccc(c23)C1=O [Compound B1, N-(2-Dimethylamino-ethyl)-1,8-naphthalimide hydrochloride] | – | 4.97 | γ globin induction (IC50) [1]: 4.1 fold; EC (μM) induction of HU IC50 (2.3 fold) [1]: 4.7 µM; water-solubility (in words) [3]: greatly improved water-solubility; solubility [3, 6]: > 100 mM; pIC50 [2, 7]: 4.97 |
| CN(C)CCCN1C(=O)c2cccc3c([N+](=O)[O-])ccc(c23)C1=O [Compound B3, N-(3-Dimethylamino-propyl)-4-nitro-1,8-naphthalimide] | – | 5.64 | – |
| CN(C)CCN1C(=O)c2cccc3c(Cl)ccc(c23)C1=O [Compound B4, N-(2-dimethylamino-ethyl)-4-chloro-1,8-naphthalimide hydrochloride] | – | 5.30 | γ globin induction (IC50) [1]: 3.3 fold; EC (μM) induction of HU IC50 (2.3 fold) [1]: 2.2 µM; water-solubility (in words) [3]: greatly improved water-solubility; solubility [3, 6]: > 100 mM; pIC50 [2, 7]: 5.30 |
| CCN1C(=O)c2cccc3cccc(c23)C1=O [Compound C1, N-Ethyl-1,8-naphthalimide] | – | < 4.00 | – |
| CN1C(=O)c2cccc3c(Cl)ccc(c23)C1=O [Compound C4, N-Methyl-4-chloro-1,8-naphthalimide] | – | < 4.00 | – |
| Nc1ccc2c3c(cccc13)C(=O)N(c1ccccc1)C2=O [Compound E1, N-Phenyl-4-amino-1,8-naphthalimide] | – | 5.66 | EC (μM) induction of HU IC50 (2.3 fold) [1]: 2.9 µM; solubility [3, 4]: 10 mM (≈ 2880 µg/mL); pIC50 [2, 7]: 6.52 |
| CN(C)CCCN1C(=O)c2cccc3c(N)ccc(c23)C1=O [Compound E3, N-(3-dimethylamino-propyl)-4-amino-1,8-naphthalimide hydrochloride] | – | 4.95 | γ globin induction (IC50) [1]: 2.7 fold; EC (μM) induction of HU IC50 (2.3 fold) [1]: 7.4 µM; water-solubility (in words) [3]: greatly improved water-solubility; solubility [3, 6]: > 100 mM; pIC50 [2, 7]: 4.95 |
| C[S+]([O-])c1ccc(-c2nc(-c3ccncc3)c(-c3ccc(F)cc3)[nH]2)cc1 (centres unmarked) [SB203580, reference compound] | – | – | effect of pre-treatment on γ globin elevation triggered by S51021 and SS-2394 ([1]; data not shown): efficiently abolished |

More lines, main results first:

| melting point [°C] | Compound | pIC50 [2, 5] | other results |
| --- | --- | --- | --- |
| > 280 | CN(C)CCN1C(=O)c2cccc3c(Cl)ccc(c23)C1=O (as salt: hydrochloride) [Compound B4, N-(2-dimethylamino-ethyl)-4-chloro-1,8-naphthalimide hydrochloride] | – | – |
| > 280 | CN(C)CCCN1C(=O)c2cccc3c(N)ccc(c23)C1=O (as salt: hydrochloride) [Compound E3, N-(3-dimethylamino-propyl)-4-amino-1,8-naphthalimide hydrochloride] | – | – |
| 278 to 279 | CC(=O)Nc1ccc2c3c(cccc13)C(=O)N(CCN(C)C)C2=O [BO-2559, N-(2-(2-(Dimethylamino)ethyl)-1,3-dioxo-2,3-dihydro-1H-benzo[de]isoquinolin-6-yl)acetamide] | – | – |
| 253 to 254 | CCNc1ccc2c3c(cccc13)C(=O)N(CCN(C)C)C2=O [BO-2564, 2-(2-(Dimethylamino)ethyl)-6-(ethylamino)-1H-benzo[de]isoquinoline-1,3(2H)-dione] | – | – |
| > 280 | O=C1c2cccc3c([N+](=O)[O-])ccc(c23)C(=O)N1c1ccccc1 [Compound A2, N-Phenyl-4-nitro-1,8-naphthalimide] | 6.52 | γ globin induction (IC50) [1]: 1.1 fold |
| > 280 | COc1cccc(N2C(=O)c3cccc4c([N+](=O)[O-])ccc(c34)C2=O)c1 [Compound A4, N-(3-Methoxy-phenyl)-4-nitro-1,8-naphthalimide] | 4.68 | – |
| 131 to 133 | CN(C)CCN1C(=O)c2cccc3c([N+](=O)[O-])ccc(c23)C1=O [Compound B2, N-(2-Dimethylamino-ethyl)-4-nitro-1,8-naphthalimide] | 5.59 | – |
| 209 to 212.5 | CN1C(=O)c2cccc3c([N+](=O)[O-])ccc(c23)C1=O [Compound C2, N-Methyl-4-nitro-1,8-naphthalimide] | < 4.00 | – |
| 191 to 192.5 | CCN1C(=O)c2cccc3c([N+](=O)[O-])ccc(c23)C1=O [Compound C3, N-Ethyl-4-nitro-1,8-naphthalimide] | < 4.00 | – |
| 167 to 170 | CCN1C(=O)c2cccc3c(Cl)ccc(c23)C1=O [Compound C5, N-Ethyl-4-chloro-1,8-naphthalimide] | < 4.00 | – |
| 115 to 116 | CCOC(=O)CCCN1C(=O)c2cccc3c([N+](=O)[O-])ccc(c23)C1=O [Compound D1, N-(Butyric acid ethyl ester)-4-nitro-1,8-naphthalimide] | 5.20 | – |
